Measured values published in patent US20220039384A1, “SELECTIVE WEED CONTROL WITH HALAUXIFEN OR 4-AMINO-3-CHLORO-5-FLUORO-6-(4-CHLORO-2-FLUORO-3-METHOXYPHENYL) PYRIDINE-2-CARBOXYLIC ACID OR DERIVATIVES THEREOF IN VINEYARDS OR PERENNIAL CROPS” (Corteva Agriscience LLC, priority 2013, published 2022).

Key:
Type in all cases: in vivo
[1] = test system: CAPBP (Capsella bursa-pastoris, Shepherd's purse); experiment: Field trial, pre-emergence dormant application (December), California vineyards: visual weed control; settings: applied prior to weed emergence
From the text: (§1) As used herein, selective pre- and post-emergence control of undesirable vegetation means preventing, reducing, killing, or otherwise adversely modifying the development of the undesirable vegetation in the presence of crop plants with limited adverse effect on the crop plants. For example, a broadleaf weed control of 80% (rated visually) with crop injury of less than or equal to 20% (rated visually) would constitute selective control. In some embodiments the adverse effect on crop plants is limited to less than 10% visually rated crop injury. Visual crop injury is a composite rating accounting for all phytotoxic effects including chlorosis, necrosis, growth inhibition, epinasty, delays in maturity and seed or fruit deformity. Visual weed control is a composite rating accounting for reductions in pest plant biomass and/or stand reduction.
(§2) Small plot research experiments were conducted in Fresno, Calif., USA to evaluate the pre-emergence and post-emergence herbicidal weed control activity and the vines crop tolerance to pre-emergence and post-emergence application of Compound I and Compound II to the weeds. Application water volume of 100 to 187 liters per hectare (L/ha) was used for all experiments. All treatments were applied with a standard small plot carbon dioxide (CO2) backpack sprayer. All treatments were tank-mixed with Crop Oil Concentrate (COC), a well known adjuvant, at 2.34 L/ha. Experimental emulsifiable concentrate (EC) formulations were used for Compounds I and II. The dimethylammonium (DMA) salt of glyphosate was used in all trials. Pindar® GT is a commercial formulation containing a pre-mix of penoxsulam+oxyfluorfen (10+476 grams of active ingredient per liter (g ai/L), respectively). Vine crop stage was dormant (no leaves on the vines during the winter) or early spring growth at the time of Compound I or Compound II application. Generally, weeds were not emerged for the pre-emergence treatments or were at the two to six-leaf stage at the time of the post-emergence herbicide application.
(§3) Tables 1, 2 and 6 provide weed control results from pre-emergence applications of Compounds I and/or II prior to weed emergence; Tables 4, 7 and 8 provide weed control results from post-emergence applications of Compounds I and/or II applied to actively growing weeds; Tables 3 and 5 provide vine response data from pre-emergence and post-emergence applications of Compound I respectively.

[2] = test system: HORMU (Hordeum murinam, wall barley); experiment: as above; settings: applied prior to weed emergence
From the text: as §1, §2, §3

[3] = test system: VITSS (Vitis spp, grape); experiment: Field trial, soil-applied dormant application (December), California vineyards: vine injury and growth response; settings: applied to the soil
From the text: as §1, §2, §3

[4] = test system: AGRRE (Agropyron repens, quackgrass); experiment: Field trial, post-emergence directed spring application (April), California vineyards: visual weed control
From the text: as §1, §2, §3

[5] = test system: ERIBO (Conyza bonariensis, hairy fleabane); experiment: as above
From the text: as §1, §2, §3

[6] = test system: EROCI (Erodium cicutarium, redstem filaree); experiment: as above
From the text: as §1, §2, §3

[7] = test system: MALPA (Malva parviflora, smallflower malva); experiment: as above
From the text: as §1, §2, §3

[8] = test system: PANCA (Panicum capillare, witchgrass); experiment: as above
From the text: as §1, §2, §3

[9] = test system: SETFA (Setaria faberi, giant foxtail); experiment: as above
From the text: as §1, §2, §3

[10] = test system: EROCI (Erodium cicutarium, redstem filaree); experiment: Field trial, post-emergence directed spring application (March), California vineyards: visual weed control
From the text: as §1, §2, §3

[11] = test system: MALPA (Malva parviflora, smallflower malva); experiment: as above
From the text: as §1, §2, §3

[12] = test system: MEDPO (Medicago polymorpha, California burclover); experiment: as above
From the text: as §1, §2, §3

[13] = test system: STEME (Stellaria media, common chickweed); experiment: as above
From the text: as §1, §2, §3

[14] = test system: AMARE (Amaranthus retroflexus, redroot pigweed); experiment: Field trial, post-emergence directed dormant application (December), California vineyards: visual weed control
From the text: as §1, §2, §3

[15] = test system: AMSIN (Amsinckia intermedia, coast fiddleneck); experiment: as above
From the text: as §1, §2, §3

[16] = test system: CAPBP (Capsella bursa-pastoris, Shepherd's purse); experiment: as above
From the text: as §1, §2, §3

[17] = test system: CHEAL (Chenopodium album, common lambsquarters); experiment: as above
From the text: as §1, §2, §3

[18] = test system: IPOSS (Ipomoea spp, morningglory); experiment: as above
From the text: as §1, §2, §3

Structure (SMILES): COC(=O)c1nc(-c2ccc(Cl)c(OC)c2F)cc(N)c1Cl [I—Me, methyl 4-amino-3-chloro-6-(4-chloro-2-fluoro-3-methoxyphenyl)pyridine-2-carboxylate]
- % Visual Control 90 DAA CAPBP ([1]; 10 g ae/ha): 62%
- % Visual Control 90 DAA CAPBP ([1]; 20 g ae/ha): 58%
- % Visual Control 90 DAA CAPBP ([1]; 40 g ae/ha): 82%
- % Visual Control 90 DAA HORMU ([2]; 10 g ae/ha): 100%
- % Visual Control 184 DAA HORMU ([2]; 10 g ae/ha): 90%
- % Visual Control 90 DAA HORMU ([2]; 20 g ae/ha): 100%
- % Visual Control 184 DAA HORMU ([2]; 20 g ae/ha): 88%
- % Visual Control 90 DAA HORMU ([2]; 40 g ae/ha): 100%
- % Visual Control 184 DAA HORMU ([2]; 40 g ae/ha): 92%
- VITSS % Visual Injury 124 DAA ([3]; 10 g ae/ha): 0%
- VITSS % Visual Injury 184 DAA ([3]; 10 g ae/ha): 15%
- VITSS Branch Length (cm) 184 DAA ([3]; 10 g ae/ha): 187 cm
- VITSS Internode Length (cm) 184 DAA ([3]; 10 g ae/ha): 7 cm
- VITSS Yield (Lbs) 236 DAA ([3]; 10 g ae/ha): 71 Lbs
- VITSS % Visual Injury 124 DAA ([3]; 20 g ae/ha): 0%
- VITSS % Visual Injury 184 DAA ([3]; 20 g ae/ha): 18%
- VITSS Branch Length (cm) 184 DAA ([3]; 20 g ae/ha): 172 cm
- VITSS Internode Length (cm) 184 DAA ([3]; 20 g ae/ha): 7 cm
- VITSS Yield (Lbs) 236 DAA ([3]; 20 g ae/ha): 63 Lbs
- VITSS % Visual Injury 124 DAA ([3]; 40 g ae/ha): 0%
- VITSS % Visual Injury 184 DAA ([3]; 40 g ae/ha): 37%
- VITSS Branch Length (cm) 184 DAA ([3]; 40 g ae/ha): 125 cm
- VITSS Internode Length (cm) 184 DAA ([3]; 40 g ae/ha): 6 cm
- VITSS Yield (Lbs) 236 DAA ([3]; 40 g ae/ha): 31 Lbs
- % Visual Control 60 DAA AGRRE ([4]; 5 g ae/ha): 87%
- % Visual Control 60 DAA AGRRE ([4]; 10 g ae/ha): 80%
- % Visual Control 60 DAA AGRRE ([4]; 20 g ae/ha): 83%
- % Visual Control 60 DAA ERIBO ([5]; 5 g ae/ha): 97%
- % Visual Control 60 DAA ERIBO ([5]; 10 g ae/ha): 95%
- % Visual Control 60 DAA ERIBO ([5]; 20 g ae/ha): 93%
- % Visual Control 60 DAA EROCI ([6]; 5 g ae/ha): 62%
- % Visual Control 60 DAA EROCI ([6]; 10 g ae/ha): 70%
- % Visual Control 60 DAA EROCI ([6]; 20 g ae/ha): 86%
- % Visual Control 60 DAA MALPA ([7]; 5 g ae/ha): 75%
- % Visual Control 60 DAA MALPA ([7]; 10 g ae/ha): 72%
- % Visual Control 60 DAA MALPA ([7]; 20 g ae/ha): 73%
- % Visual Control 60 DAA PANCA ([8]; 5 g ae/ha): 82%
- % Visual Control 60 DAA PANCA ([8]; 10 g ae/ha): 88%
- % Visual Control 60 DAA PANCA ([8]; 20 g ae/ha): 86%
- % Visual Control 60 DAA SETFA ([9]; 5 g ae/ha): 98%
- % Visual Control 60 DAA SETFA ([9]; 10 g ae/ha): 80%
- % Visual Control 60 DAA SETFA ([9]; 20 g ae/ha): 97%
- % Visual Control 59 DAA EROCI ([10]; 2.5 g ae/ha): 43.3%
- % Visual Control 59 DAA EROCI ([10]; 5 g ae/ha): 89.7%
- % Visual Control 59 DAA EROCI ([10]; 10 g ae/ha): 94%
- % Visual Control 59 DAA MALPA ([11]; 2.5 g ae/ha): 80%
- % Visual Control 59 DAA MALPA ([11]; 5 g ae/ha): 90%
- % Visual Control 59 DAA MALPA ([11]; 10 g ae/ha): 96.7%
- % Visual Control 59 DAA MEDPO ([12]; 2.5 g ae/ha): 100%
- % Visual Control 59 DAA MEDPO ([12]; 5 g ae/ha): 100%
- % Visual Control 59 DAA MEDPO ([12]; 10 g ae/ha): 100%
- % Visual Control 59 DAA STEME ([13]; 2.5 g ae/ha): 46.7%
- % Visual Control 59 DAA STEME ([13]; 5 g ae/ha): 94%
- % Visual Control 59 DAA STEME ([13]; 10 g ae/ha): 95.7%
- % Visual Control 57 DAA AMARE ([14]; 2.5 g ae/ha): 95%
- % Visual Control 57 DAA AMARE ([14]; 5 g ae/ha): 96.7%
- % Visual Control 57 DAA AMARE ([14]; 10 g ae/ha): 100%
- % Visual Control 57 DAA AMSIN ([15]; 2.5 g ae/ha): 38.3%
- % Visual Control 57 DAA AMSIN ([15]; 5 g ae/ha): 76.7%
- % Visual Control 57 DAA AMSIN ([15]; 10 g ae/ha): 97.3%
- % Visual Control 57 DAA CAPBP ([16]; 2.5 g ae/ha): 91.7%
- % Visual Control 57 DAA CAPBP ([16]; 5 g ae/ha): 99.3%
- % Visual Control 57 DAA CAPBP ([16]; 10 g ae/ha): 100%
- % Visual Control 57 DAA CHEAL ([17]; 2.5 g ae/ha): 100%
- % Visual Control 57 DAA CHEAL ([17]; 5 g ae/ha): 96.7%
- % Visual Control 57 DAA CHEAL ([17]; 10 g ae/ha): 100%
- % Visual Control 57 DAA IPOSS ([18]; 2.5 g ae/ha): 57.8%
- % Visual Control 57 DAA IPOSS ([18]; 5 g ae/ha): 65%
- % Visual Control 57 DAA IPOSS ([18]; 10 g ae/ha): 66.7%
